Where a name gives a salt, the structure may show the parent alone.
Tests used:
MV-4-11 cells = assay: AML cell viability assay (RealTime-Glo); assay type: cell-based; conditions: Homo sapiens, MV4-11; IC50 class; MV-4-11 cells, RealTime-Glo after 44 hrs of treatment (TABLE 3); read-out: Cell viability classification
CK1α = CK1α (Homo sapiens, UniProt P48729+Q96SW2); assay: CK1α degradation, flow cytometry in MV4-11 cells; assay type: cell-based; parameters: CK1α levels were determined in MV-4-11 cells using Jess (Protein Simple); host or cells: MV-4-11; conditions: % reduction of CK1α compared to DMSO, MV4-11 cells at 316 nM for 16 hours, read-out: CK1α degradation classification
Experimental: MV-4-11 cells were obtained from ATCC and grown in IMDM supplemented with 10% FBS. The cells were maintained at 37° C. under 5% CO2.
Compounds of the present disclosure were added to cells (final DMSO concentration of 0.5%) and incubated for 16 hours. CK1α level was determined in MV4-11 cells using flow cytometry (Luminex, Guava EasyCyte Plus). Briefly, cells were prepared with sequential 10% formalin and 70% methanol fixation. […] GuavaSoft Incyte software was used to analyse the flow cytometry data. Protein levels relative to DMSO are calculated for CK1α.
The efficacy of CK1α degradation of other part of compounds of the present disclosure was determined by treating MV4-11 cells at […] (Final DMSO concentration of 0.5%) for 16 hours. Protein levels relative to DMSO are calculated for CK1α.
Protein levels relative to DMSO are calculated for CK1α.

Chain of CK1α (P48729 whole entry): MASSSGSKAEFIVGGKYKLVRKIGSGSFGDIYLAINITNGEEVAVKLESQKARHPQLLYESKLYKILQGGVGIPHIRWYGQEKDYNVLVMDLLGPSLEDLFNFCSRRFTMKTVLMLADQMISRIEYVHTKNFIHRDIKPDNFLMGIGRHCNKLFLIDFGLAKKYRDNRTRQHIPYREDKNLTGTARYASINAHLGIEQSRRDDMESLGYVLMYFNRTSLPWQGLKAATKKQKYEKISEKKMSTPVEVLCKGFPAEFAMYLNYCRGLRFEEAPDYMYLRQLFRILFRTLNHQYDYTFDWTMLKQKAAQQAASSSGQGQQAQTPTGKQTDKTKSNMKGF
Chain of CK1α (Q96SW2 whole entry): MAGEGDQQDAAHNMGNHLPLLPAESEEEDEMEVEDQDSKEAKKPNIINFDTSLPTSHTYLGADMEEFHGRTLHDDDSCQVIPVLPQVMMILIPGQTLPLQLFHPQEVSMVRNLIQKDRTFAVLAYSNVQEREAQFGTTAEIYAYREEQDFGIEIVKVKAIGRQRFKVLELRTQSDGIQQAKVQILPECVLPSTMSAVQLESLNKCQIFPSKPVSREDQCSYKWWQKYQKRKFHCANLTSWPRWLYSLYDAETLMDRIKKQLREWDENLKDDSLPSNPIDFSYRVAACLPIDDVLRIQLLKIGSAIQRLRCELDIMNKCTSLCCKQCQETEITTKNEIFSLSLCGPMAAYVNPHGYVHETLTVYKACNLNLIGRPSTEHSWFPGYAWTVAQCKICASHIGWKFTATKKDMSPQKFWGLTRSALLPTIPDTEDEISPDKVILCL
Chain of CK1α (Q16531 whole entry partner): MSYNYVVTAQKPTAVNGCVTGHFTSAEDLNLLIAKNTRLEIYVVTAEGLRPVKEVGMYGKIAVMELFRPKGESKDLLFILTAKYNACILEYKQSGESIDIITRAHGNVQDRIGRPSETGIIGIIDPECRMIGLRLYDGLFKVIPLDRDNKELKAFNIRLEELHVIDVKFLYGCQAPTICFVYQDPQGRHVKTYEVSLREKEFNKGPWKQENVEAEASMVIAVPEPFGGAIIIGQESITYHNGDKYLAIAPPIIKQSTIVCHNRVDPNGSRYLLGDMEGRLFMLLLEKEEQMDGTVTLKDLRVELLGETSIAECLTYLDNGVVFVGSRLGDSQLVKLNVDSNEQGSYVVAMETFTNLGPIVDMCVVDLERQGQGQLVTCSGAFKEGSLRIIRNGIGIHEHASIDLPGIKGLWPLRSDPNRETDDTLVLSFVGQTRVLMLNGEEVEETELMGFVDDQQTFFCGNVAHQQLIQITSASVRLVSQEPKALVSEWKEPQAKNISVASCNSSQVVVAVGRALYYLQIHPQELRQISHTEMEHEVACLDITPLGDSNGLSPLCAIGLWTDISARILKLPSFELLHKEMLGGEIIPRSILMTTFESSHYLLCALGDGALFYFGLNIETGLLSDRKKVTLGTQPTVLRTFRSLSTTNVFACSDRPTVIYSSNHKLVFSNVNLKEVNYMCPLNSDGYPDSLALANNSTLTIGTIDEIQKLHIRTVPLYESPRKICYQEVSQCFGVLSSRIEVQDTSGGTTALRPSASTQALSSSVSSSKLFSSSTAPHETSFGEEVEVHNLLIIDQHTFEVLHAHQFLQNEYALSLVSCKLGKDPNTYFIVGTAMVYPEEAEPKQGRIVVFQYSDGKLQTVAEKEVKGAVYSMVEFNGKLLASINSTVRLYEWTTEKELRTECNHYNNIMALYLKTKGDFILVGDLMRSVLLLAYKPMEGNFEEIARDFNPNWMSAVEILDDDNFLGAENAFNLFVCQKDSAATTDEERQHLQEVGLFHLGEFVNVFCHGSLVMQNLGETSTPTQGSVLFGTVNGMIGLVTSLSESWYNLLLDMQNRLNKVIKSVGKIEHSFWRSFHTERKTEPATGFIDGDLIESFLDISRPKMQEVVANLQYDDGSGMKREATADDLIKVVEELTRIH

IC50 (MV-4-11 cells) [nM]	Dmax at 0.316 µM (CK1α) [%]	Compound
< 100	> 75	CCCCCN(c1cccc2c1CN(C1CCC(=O)NC1=O)C2=O)[C@H]1CC[C@H](C(N)=O)CC1 (stereo partly drawn) [Compound 305, (1R,4R)-4-((2-(2,6-dioxopiperidin-3-yl)-1-oxoisoindolin-4-yl)(pentyl)amino)cyclohexane-1-carboxamide]
100 to 1000	> 75	CCCCCN(c1cccc2c1CN(C1CCC(=O)NC1=O)C2=O)[C@H]1CC[C@H](C(=O)NC)CC1 (stereo partly drawn) [Compound 306, (1R,4R)-4-((2-(2,6-dioxopiperidin-3-yl)-1-oxoisoindolin-4-yl)(pentyl)amino)-N-methylcyclohexane-1-carboxamide]
< 100	> 75	CCCCCN(c1cccc2c1CN(C1CCC(=O)NC1=O)C2=O)[C@H]1CC[C@@H](C(N)=O)CC1 (stereo partly drawn) [Compound 307, (1S,4S)-4-((2-(2,6-dioxopiperidin-3-yl)-1-oxoisoindolin-4-yl)(pentyl)amino)cyclohexane-1-carboxamide]
< 100	> 75	CCCCCN(c1cccc2c1CN(C1CCC(=O)NC1=O)C2=O)[C@H]1CC[C@@H](C(=O)NC)CC1 (stereo partly drawn) [Compound 308, (1S,4S)-4-((2-(2,6-dioxopiperidin-3-yl)-1-oxoisoindolin-4-yl)(pentyl)amino)-N-methylcyclohexane-1-carboxamide]
< 100	> 75	CCCCCN(c1cccc2c1CN(C1CCC(=O)NC1=O)C2=O)[C@H]1CC[C@H](NCC)CC1 (stereo partly drawn) [Compound 309, 3-(4-(((1r,4r)-4-(ethylamino)cyclohexyl)(pentyl)amino)-1-oxoisoindolin-2-yl)piperidine-2,6-dione, HCl]
< 100	50 to 75	CCCCCN(c1cccc2c1CN(C1CCC(=O)NC1=O)C2=O)[C@H]1CC[C@H](NC(C)C)CC1 (stereo partly drawn) [Compound 310, 3-(4-(((1r,4r)-4-(isopropylamino)cyclohexyl)(pentyl)amino)-1-oxoisoindolin-2-yl)piperidine-2,6-dione, HCl]
< 100	> 75	CCCCCN(c1cccc2c1CN(C1CCC(=O)NC1=O)C2=O)[C@H]1CC[C@H](NCC(C)C)CC1 (stereo partly drawn) [Compound 311, 3-(4-(((1r,4r)-4-(isobutylamino)cyclohexyl)(pentyl)amino)-1-oxoisoindolin-2-yl)piperidine-2,6-dione, HCl]
< 100	> 75	CCCCCN(c1cccc2c1CN(C1CCC(=O)NC1=O)C2=O)[C@H]1CC[C@H](NCCC)CC1 (stereo partly drawn) [Compound 312, 3-(1-oxo-4-(pentyl((1r,4r)-4-(propylamino)cyclohexyl)amino)isoindolin-2-yl)piperidine-2,6-dione, HCl]
< 100	> 75	CCCCCN(c1cccc2c1CN(C1CCC(=O)NC1=O)C2=O)[C@H]1CC[C@H](NCC2CC2)CC1 (stereo partly drawn) [Compound 313, 3-(4-(((1R,4R)-4-((cyclopropylmethyl)amino)cyclohexyl)(pentyl)amino)-1-oxoisoindolin-2-yl)piperidine-2,6-dione hydrochloride]
< 100	> 75	CCCCCN(c1cccc2c1CN(C1CCC(=O)NC1=O)C2=O)[C@@H]1CC[C@@H](CN)C1 (stereo partly drawn) [Compound 325, 3-(4-(((1R,3R)-3-(aminomethyl)cyclopentyl)(pentyl)amino)-1-oxoisoindolin-2-yl)piperidine-2,6-dione HCl salt]
< 100	> 75	NC[C@@H]1CC[C@@H](N(CCC2CC2)c2cccc3c2CN(C2CCC(=O)NC2=O)C3=O)C1 (stereo partly drawn) [Compound 325A, 3-(4-(((1R,3R)-3-(aminomethyl)cyclopentyl)(2-cyclopropylethyl)amino)-1-oxoisoindolin-2-yl)piperidine-2,6-dione, HCl]
< 100	> 75	CCCCCN(c1cccc2c1CN(C1CCC(=O)NC1=O)C2=O)[C@@H]1CC[C@H](CN)C1 (stereo partly drawn) [Compound 326, 3-(4-(((1R,3S)-3-(aminomethyl)cyclopentyl)(pentyl)amino)-1-oxoisoindolin-2-yl)piperidine-2,6-dione, Formic Acid salt]
< 100	> 75	NC[C@H]1CC[C@@H](N(CCC2CC2)c2cccc3c2CN(C2CCC(=O)NC2=O)C3=O)C1 (stereo partly drawn) [Compound 326A, 3-(4-(((1R,3S)-3-(aminomethyl)cyclopentyl)(2-cyclopropylethyl)amino)-1-oxoisoindolin-2-yl)piperidine-2,6-dione, HCl]
100 to 1000	50 to 75	CCCCCN(c1cccc2c1CN(C1CCC(=O)NC1=O)C2=O)[C@H]1CCC[C@H](CN)C1 (stereo partly drawn) [Compound 329, 3-(4-(((1S,3S)-3-(aminomethyl)cyclohexyl)(pentyl)amino)-1-oxoisoindolin-2-yl)piperidine-2,6-dione, HCl]
< 100	> 75	CCCCCN(c1cccc2c1CN(C1CCC(=O)NC1=O)C2=O)[C@H]1CCC[C@@H](CN)C1 (stereo partly drawn) [Compound 330, 3-(4-(((1S,3R)-3-(aminomethyl)cyclohexyl)(pentyl)amino)-1-oxoisoindolin-2-yl)piperidine-2,6-dione, HCl]
100 to 1000	50 to 75	O=C1CCC(N2Cc3c(cccc3N(CCCC(F)(F)F)[C@H]3CC[C@H](NC4CC(F)(F)C4)CC3)C2=O)C(=O)N1 (stereo partly drawn) [Compound 512, 3-(4-(((1r,4r)-4-((3,3-difluorocyclobutyl)amino)cyclohexyl)(4,4,4-trifluorobutyl)amino)-1-oxoisoindolin-2-yl)piperidine-2,6-dione]
100 to 1000	> 75	O=C1CCC(N2Cc3c(cccc3N(CCCC(F)(F)F)[C@H]3CC[C@H](NCCC(F)(F)F)CC3)C2=O)C(=O)N1 (stereo partly drawn) [Compound 513, 3-(1-oxo-4-((4,4,4-trifluorobutyl)((1r,4r)-4-((3,3,3-trifluoropropyl)amino)cyclohexyl)amino)isoindolin-2-yl)piperidine-2,6-dione]
100 to 1000	50 to 75	O=C1CCC(N2Cc3c(cccc3N(CCCC(F)(F)F)[C@H]3CC[C@H](NC4COC4)CC3)C2=O)C(=O)N1 (stereo partly drawn) [Compound 514, 3-(1-oxo-4-{[(1r,4r)-4-(oxetan-3-ylamino)cyclohexyl](4,4,4-trifluorobutyl)amino}-3H-isoindol-2-yl)piperidine-2,6-dione]
> 1000	50 to 75	O=C1CCC(N2Cc3c(cccc3N(CCC3CC3)[C@H]3CC[C@H](NC4CC(F)(F)C4)CC3)C2=O)C(=O)N1 (stereo partly drawn) [Compound 515, 3-(4-((2-cyclopropylethyl)((1r,4r)-4-((3,3-difluorocyclobutyl)amino)cyclohexyl)amino)-1-oxoisoindolin-2-yl)piperidine-2,6-dione formate]
100 to 1000	50 to 75	O=C1CCC(N2Cc3c(cccc3N(CCC3CC3)[C@H]3CC[C@@H](NC4CC(F)(F)C4)CC3)C2=O)C(=O)N1 (stereo partly drawn) [Compound 515A, 3-(4-((2-cyclopropylethyl)((1s,4s)-4-((3,3-difluorocyclobutyl)amino)cyclohexyl)amino)-1-oxoisoindolin-2-yl)piperidine-2,6-dione formate]
< 100	> 75	O=C1CCC(N2Cc3c(cccc3N(CCC3CC3)[C@H]3CC[C@H](NCCC(F)(F)F)CC3)C2=O)C(=O)N1 (stereo partly drawn) [Compound 516, 3-{4-[(2-cyclopropylethyl)[(1r,4r)-4-[(3,3,3-trifluoropropyl)amino]cyclohexyl]amino]-1-oxo-3H-isoindol-2-yl}piperidine-2,6-dione]
